Source: patent US9301923B2, “Lipids, lipid compositions, and methods of using them” (NOVARTIS AG, priority 2009, dated 2016)

How the values were obtained:
Factor VII = Factor VII activity assay, in vivo liver delivery of FVII siRNA LNP; set-up: species or system mouse; settings: for FVII inhib %: ~48 h
Method: Female CD-1 mice are received from Charles River Labs and maintained on standard lab chow and water ad libitum. The animals weigh approximately 25 grams at time of dosing. Formulated siRNA is administered as a single dose at various dose levels intravenously via the lateral tail vein calculated on a (mg siRNAs/kg) basis according to individual animal weights (10 ml/kg injection volume).
Formulated siRNAs are made up of double stranded siRNA sequences specific to a target mRNA sequence, and are in the form of lipid nucleotid particles (LNPs) containing cationic lipids, stealth lipids and neutral lipids, as provided in the Examples below. The siRNA construct for use in targeting the liver is specific to Factor VII. […] FVII siRNA duplex sequence
Formulated Factor VII siRNA is administered as a single dose at various dose levels intravenously via the lateral tail vein calculated on a mg siRNAs/kg basis according to individual animal weights (10 ml/kg injection volume). Approximately 48 h after injection, the mice are euthanized by CO2 inhalation followed by exsanguinations through the vena cava. […] In some cases, small pieces (˜50 mg) of liver are collected and snap frozen in liquid nitrogen for follow up mRNA quantitation.
An assay standard curve is prepared using pooled plasma aliquots from the vehicle control animals.

[1] = pKa of the lipid by TNS fluorescence; type: physicochemical; settings: pKa
Method: Unless explicitly indicated otherwise, all pKas referred to herein are measured in water at standard temperature and pressure. Also, unless otherwise indicated, all references to pKa are references to pKa measured using the following technique.
2 mM solution of lipid in ethanol are prepared by weighing the lipid and then dissolving in ethanol.
This is done with all eight buffers.
Priority: Column priority • Carriage Speed: Normal • Auto read: Off
The normalized fluorescence intensity vs. pH chart is then plotted in the Microsoft Excel software. The eight points are connected with a smooth line.
The pKa determined using this method is precise to about 0.2 pKa units.

[2] = Particle size and PDI by dynamic light scattering (Malvern Zetasizer); type: physicochemical
Method: Unless indicated otherwise, all sizes referred to herein are the average sizes (diameters) of the fully formed nanoparticle, as measured by dynamic light scattering on a Malvern Zetasizer. The nanoparticle sample is diluted in phosphate buffered saline (PBS) so that the count rate is approximately 200-400 kcts. The data is presented as a weighted average of the intensity measure.
The acronym PDI stands for polydispersity index. Unless indicated otherwise, all PDIs referred to herein are the PDI of the fully formed nanoparticle, as measured by dynamic light scattering on a Malvern Zetasizer. The nanoparticle sample is diluted in phosphate buffered saline (PBS) so that the count rate is approximately 200-400 kcts.

[3] = dose 1 mg/kg siRNA i.v., lipid/no neutral lipid/CHOL/GM-020 NOF 60/0/36/4, N/P 3
[4] = lipid/no neutral lipid/CHOL/GM-020 NOF 60/0/36/4, N/P 3
[5] = dose 3 mg/kg siRNA i.v., lipid/DSPC/CHOL/AVANTI 880150P 50/28/18/4, N/P 3.43
[6] = dose 3 mg/kg siRNA i.v., lipid/no neutral lipid/CHOL/AVANTI 880150P 50/0/46/4, N/P 3.43
[7] = lipid/DSPC/CHOL/AVANTI 880150P 50/28/18/4, N/P 3.43
[8] = lipid/no neutral lipid/CHOL/AVANTI 880150P 50/0/46/4, N/P 3.43

Compound	FVII inhib % (Factor VII; [3]) [%]	pKa [1]	Final size (nm) [2, 4] [nm]	PDI [2, 4]	FVII inhib % (Factor VII; [5]) [%]	FVII inhib % (Factor VII; [6]) [%]	Final size (nm) [2, 7] [nm]	PDI [2, 7]	Final size (nm) [2, 8] [nm]	PDI [2, 8]	FVII inhib % (Factor VII; dose 1 mg/kg siRNA i.v., lipid/DSPC/CHOL/AVANTI 880150P 50/28/18/4, N/P 3.43) [%]	in vivo Factor VII inhibition (Factor VII; formulation containing the cationic lipid, RNAi construct specific to Factor VII, liver) [%]
CCCCCCCC/C=C\CCCCCCCCOCC(CN1CCCC1C)OCCOCCO[C@H]1CC[C@@]2(C)C(=CC[C@H]3[C@@H]4CC[C@H]([C@H](C)CCCC(C)C)[C@@]4(C)CC[C@@H]32)C1 (stereo partly shown) [E0065]	41.1	6.8	153.01	0.148	–	–	–	–	–	–	–	–
CCCCC/C=C\C/C=C\CCCCCCCCCCOCC(CN1CCCCC1)OCCOCCO[C@H]1CC[C@@]2(C)C(=CC[C@H]3[C@@H]4CC[C@H]([C@H](C)CCCC(C)C)[C@@]4(C)CC[C@@H]32)C1 (stereo partly shown) [E0071]	30.8	6.47	188.2	0.151	–	–	–	–	–	–	–	–
CCCCC/C=C\C/C=C\CCCCCCCCOCC(CN1CCC(N(C)C)C1)OCCOCCO[C@H]1CC[C@@]2(C)C(=CC[C@H]3[C@@H]4CC[C@H]([C@H](C)CCCC(C)C)[C@@]4(C)CC[C@@H]32)C1 (stereo partly shown) [E0039]	–	5.88	–	–	−6.7	−5.4	113	0.15	94	0.06	–	–
CCCCC/C=C\C/C=C\CCCCCCCCOCC(CN1CC=CC1)OCCOCCO[C@H]1CC[C@@]2(C)C(=CCC3C2CC[C@@]2(C)C3CC[C@@H]2[C@H](C)CCCC(C)C)C1 (stereo partly shown) [E0032]	–	6.8	–	–	64.5	85.5	87	0.18	63	0.21	–	–
CCCCCCCC/C=C\CCCCCCCCOCC(CN1CCCCC1)OCCCOCCCO[C@H]1CC[C@@]2(C)C(=CC[C@H]3[C@@H]4CC[C@H]([C@H](C)CCCC(C)C)[C@@]4(C)CC[C@@H]32)C1 (stereo partly shown) [E0078]	51.9	5.72	122.6	0.098	–	–	–	–	–	–	–	–
CCCCC/C=C\C/C=C\CCCCCCCCOCC(CN1CCC[C@H]1C)OCCOCCO[C@H]1CC[C@@]2(C)C(=CCC3C2CC[C@@]2(C)C3CC[C@@H]2[C@H](C)CCCC(C)C)C1 (stereo partly shown) [E0049]	–	6.85	–	–	–	78.8	–	–	237	0.09	–	–
CCCCC/C=C\C/C=C\CCCCCCCCOC[C@@H](CN1CCC[C@H]1C)OCCOCCO[C@H]1CC[C@@]2(C)C(=CCC3C2CC[C@@]2(C)C3CC[C@@H]2[C@H](C)CCCC(C)C)C1 (stereo partly shown) [E0052]	–	6.95	–	–	98.1	–	100.4	0.185	–	–	69.8	–
CCCCC/C=C\C/C=C\CCCCCCCCOCC(CN1CCC2(CC1)OCCCO2)OCCOCCO[C@H]1CC[C@@]2(C)C(=CCC3C2CC[C@@]2(C)C3CC[C@@H]2[C@H](C)CCCC(C)C)C1 (stereo partly shown) [E0007]	–	5.84	–	–	72.2	76.8	92	0.178	138	0.148	–	–
CCCCC/C=C\C/C=C\CCCCCCCCOCC(CN1CCCC2CCCCC21)OCCOCCO[C@H]1CC[C@@]2(C)C(=CCC3C2CC[C@@]2(C)C3CC[C@@H]2[C@H](C)CCCC(C)C)C1 (stereo partly shown) [E0010]	–	5.85	–	–	46.8	65.1	90	0.184	80	0.201	–	–
CCCCC/C=C\C/C=C\CCCCCCCCOCC(CN1CCOCC1)OCCCCO[C@H]1CC[C@@]2(C)C(=CCC3C2CC[C@@]2(C)C3CC[C@@H]2[C@H](C)CCCC(C)C)C1 (stereo partly shown) [E0028]	–	4.8	–	–	12.5	38.7	129	0.216	68	0.125	–	–
CCCCC/C=C\C/C=C\CCCCCCCCOCC(CN1CCCCC1)OCCOCCOCCOCCO[C@H]1CC[C@@]2(C)C(=CC[C@H]3[C@@H]4CC[C@H]([C@H](C)CCCC(C)C)[C@@]4(C)CC[C@@H]32)C1 (stereo partly shown) [E0079]	33.5	6.79	106.2	0.052	–	–	–	–	–	–	–	–
CCCCC/C=C\C/C=C\CCCCCCCCOCC(CN1CCC(C)(C)CC1)OCCOCCO[C@H]1CC[C@@]2(C)C(=CCC3C2CC[C@@]2(C)C3CC[C@@H]2[C@H](C)CCCC(C)C)C1 (stereo partly shown) [E0171]	–	8.5	–	–	–	54.1	–	–	90	0.18	–	40.8
CCCCC/C=C\C/C=C\CCCCCCCCOCC(CN1CCC(N2CCCCC2)CC1)OCCOCCO[C@H]1CC[C@@]2(C)C(=CCC3C2CC[C@@]2(C)C3CC[C@@H]2[C@H](C)CCCC(C)C)C1 (stereo partly shown) [E0004]	–	7.48	–	–	23.4	41	142	0.113	186	0.201	–	–
CCCCC/C=C\C/C=C\CCCCCCCCOCC(CN1CCCC1C)OCCOCCOCCOCCO[C@H]1CC[C@@]2(C)C(=CC[C@H]3[C@@H]4CC[C@H]([C@H](C)CCCC(C)C)[C@@]4(C)CC[C@@H]32)C1 (stereo partly shown) [E0084]	60.7	7.27	112.1	0.1	–	–	–	–	–	–	–	–
CCCCC/C=C\C/C=C\CCCCCCCCOCC(CN1CCCC1)OCCOCCO[C@H]1CC[C@@]2(C)C(=CC[C@H]3[C@@H]4CC[C@H]([C@H](C)CCCC(C)C)[C@@]4(C)CC[C@@H]32)C1 (stereo partly shown) [E0015]	–	7.39	–	–	30.7	77.1	164	0.06	130	0.05	–	–
CCCCC/C=C\C/C=C\CCCCCCCCOCC(CN1CCC[C@@H]1C)OCCOCCO[C@H]1CC[C@@]2(C)C(=CCC3C2CC[C@@]2(C)C3CC[C@@H]2[C@H](C)CCCC(C)C)C1 (stereo partly shown) [E0048]	–	6.56	–	–	–	88.5	–	–	225	0.115	–	–
CCCCC/C=C\C/C=C\CCCCCCCCOCOCC(CN1CCCCC1)OCCOCCO[C@H]1CC[C@@]2(C)C(=CC[C@H]3[C@@H]4CC[C@H]([C@H](C)CCCC(C)C)[C@@]4(C)CC[C@@H]32)C1 (stereo partly shown) [E0115]	68.8	6.41	162.5	0.098	–	–	–	–	–	–	–	–
